pIC50: −log10 of the molar value. Like-named read-outs stand apart in the source and are kept apart here.
Tests used:
[1] = test system: SRS-A-induced constriction of the guinea pig ileum; test: Guinea Pig Ileum, In Vitro (inhibition of SRS-A-induced constriction); conditions: Cavia porcellus; SRS-A (EC50 dose) challenge, 37° C., atropine and pyrilamine present
Description: (a) Guinea Pig Ileum, In Vitro:
The guinea pig ileum bioassay system has been described by Orange and Austen, Adv. Immunol. […] A 1.5 cm segment is removed from animals weighing 300-400 g and suspended in an organ bath containing 10 ml of Tyrodes solution with 10^-6 M atropine sulfate and 10^-6 M pyrilamine maleate. […] The SRS-A utilized in this screen is obtained by challenging chopped lung fragments from actively sensitized guinea pigs with egg albumin, in vitro. A dose-response curve to SRS-A challenge is established for the ileum. […] The drug concentration which inhibits, by 50%, the SRS-A-induced constriction of the guinea pig ileum is determined.

[2] = test system: leukotriene E4-induced bronchoconstriction; test: Guinea Pig Bronchoconstriction, In Vivo (Aerosol)
Description: (c) Guinea Pig Bronchoconstriction, In Vivo (Aerosol):
(§1) Male guinea pigs (Hartley strain) weighing 300 to 500 g are anesthetized with urethane (2 g/kg) intraperitoneally and a polyethylene cannula is inserted into the jugular vein for drug administration. Tracheal pressure is recorded from a cannula inserted in the trachea and connected to a Statham pressure transducer. After surgical preparation of the animals, a period of time is allowed for pulmonary functions to stabilize. The test compound is administered according to the following protocol. Propanolol (0.1 mg/kg) is administered intravenously while the animals breathed spontaneously. Five minutes thereafter, the animals are exposed for a five minute period to a 1% (w/v) aerosol solution of test compound (adjusted to an alkaline pH where necessary for drug solubilization) or to distilled water of the appropriate pH (for control purposes). A Monaghan (Model 750) ultrasonic nebulizer is used to administer all test compounds by inhalation. The nebulizer ultrasonic frequency is adjusted to produce particles in the 1-8μ diameter range (average 3μ). Aqueous solutions are prepared fresh and introduced into the chamber of the nebulizer. The output of the nebulizer is made available to the animal by directing a bias flow of aerosol through a y tube connected to the tracheal cannula. At the end of the exposure period, the animals are paralyzed with succinylcholine (1.2 mg/kg, i.v.) and mechanically respirated (Harvard rodent respirator) at 40 breaths/minute and 2.5 cc tidal volume. Animals are then challenged with a maximum constrictory dose of leukotriene E4 delivered intravenously 30 seconds after administration of the succinylcholine.
(§2) The change (cm H2 O) between pre and peak ventilatory pressure readings is averaged for the three control animals and five drug treated animals. The percent inhibition is calculated from the following formula: [formula] When various drug concentrations are tested, the percent inhibition at each concentration is plotted as log concentration (abscissa) versus percent inhibition (ordinate) and the IC50 is determined from linear regression analysis.

[3] = test system: leukotriene E4-induced bronchoconstriction; test: Guinea Pig Bronchoconstriction, In Vivo (Aerosol), duration of action; conditions: 1% aerosol; time for % inhibition to fall below 40%
Description: as §1, §2
In order to determine the duration of action (doa), the animals are prepared as described above, except that the time between aerosol exposure and challenge with LTE4 is varied. All compounds are administered at a concentration of 1%. Duration of action is calculated from plots of time (abscissa) versus % inhibition (ordinate). The duration of action is defined as the time for the % inhibition to fall below 40%.

[4] = test system: leukotriene E4-induced bronchoconstriction; test: Guinea Pig Bronchoconstriction, In Vivo (leukotriene E4 challenge; drug i.v. or oral); conditions: for Guinea Pig Bronchoconstriction, In Vivo % I, 10 mg/kg I.V.: leukotriene E4 challenge; for inhibition in vivo at 100 mg/kg: Cavia porcellus, po, 100 mg/kg p.o.
Description: (b) Guinea Pig Bronchoconstriction, In Vivo:
Male guinea pigs (Hostley strain) weighing 300 to 450 grams are anesthetized with urethane (2 g/kg) intraperitoneally and a polyethylene cannula is inserted into the jugular vein for intravenous drug administration. Tracheal pressure is recorded from a cannula inserted in the trachea and connected to a Statham pressure transducer. Respiration is paralyzed with succinyl choline (1.2 mg/kg, i.v.) and the animals are mechanically respirated (Howard rodent respirator) at 40 breaths/minute and 2.5 cc tidal volume. Two minutes thereafter, propanolol (0.1 mg/kg, i.v.) is administered. Five minutes later, the animals are pretreated intravenously for 30 seconds (at 10 mg/kg) with test drug or control vehicle. The animals are subsequently challenged with a maximally constrictory dose of leukotriene E4 also administered intravenously. The change (cm H2 O) between pre and peak ventilatory pressure readings is averaged for three control animals and five drug treated animals. The percent inhibition is calculated from the following formula: (Control-Drug Treated/Control)×100. For determination of oral activity, spontaneously breathing animals are pretreated orally for 2 hours (at 100 mg/kg) prior to challange with leukitriene E4.

LD50 = conditions: in vivo, species not given
[5] = 2 hours prior to leukotriene E4 challenge
[6] = time after exposure not given, leukotriene E4 challenge
[7] = determined 30 seconds after exposure to test drug (footnote a)

Row | SMILES | pIC50 [1] | Guinea Pig Bronchoconstriction, In Vivo Aerosol IC50 (%) ([2]; determined 15 minutes after exposure to test drug (footnote b)) | Aerosol Duration of Action [3] | Guinea Pig Bronchoconstriction, In Vivo % I, 10 mg/kg I.V. [4] | inhibition in vivo at 100 mg/kg [4, 5] | Guinea Pig Bronchoconstriction, In Vivo Aerosol IC50 (%) [2, 6] | LD50 (LD50; ip, read-out: LD50 i.p.) | LD50 (LD50; po, read-out: LD50 p.o.) | Guinea Pig Bronchoconstriction, In Vivo Aerosol IC50 (%) [2, 7] | oral activity in guinea pig bronchoconstriction (in words) ([4]; oral, 100 mg/kg, 2 hours prior to leukotriene E4 challenge)
1 | CCCc1c(OCC(O)COc2c(C(C)=O)ccc(OCC(=O)O)c2CCC)ccc(C(C)=O)c1O (racemic) [racemic [4-acetyl-3-[3-(4-acetyl-3-hydroxy-2-propylphenoxy)-2-hydroxypropoxy]-2-propylphenoxy]acetic acid] | 6.00 | 0.1% | 72 min | 89% | 29% | – | – | – | – | –
2 | CCCc1c(OCCCCCOc2c(C(C)=O)ccc(OCC(=O)O)c2CCC)ccc(C(C)=O)c1O [[4-acetyl-3-[5-(4-acetyl-3-hydroxy-2-propylphenoxy)pentyloxy]-2-propylphenoxy]acetic acid] | 7.00 | – | 55 min | 91% | 51% | 0.02% | 140 mg/kg | 900 mg/kg | – | –
3 | CCCc1c(OCCCCCOc2c(C(C)=O)ccc(OCCCC(=O)O)c2CCC)ccc(C(C)=O)c1O [4-[4-acetyl-3-[[5-(4-acetyl-3-hydroxy-2-propylphenoxy)pentyl]oxy]-2-propylphenoxy]butanoic acid] | 6.00 | – | 46 min | 92% | 84% | 0.01% | – | – | – | –
4 | CCCc1c(OCCOCCOc2c(C(C)=O)ccc(OCC(=O)O)c2CCC)ccc(C(C)=O)c1O [[4-acetyl-3-[2-[2-(4-acetyl-3-hydroxy-2-propylphenoxy)ethoxy]ethoxy]-2-propylphenoxy]acetic acid] | 6.70 | – | 14 min | 86% | 26% | 0.02% | 170 mg/kg | 800 mg/kg | – | –
5 | CCCc1c(OCCCOc2c(C(C)=O)ccc(OCC(=O)O)c2CCC)ccc(C(C)=O)c1O [[4-acetyl-3-[3-(4-acetyl-3-hydroxy-2-propylphenoxy)propoxy]-2-propylphenoxy]acetic acid] | 5.70 | – | 90 min | 95% | 52% | – | 90 mg/kg | 500 mg/kg | 0.07% | –
6 | CCCc1c(OCCOCCOCCOc2c(C(C)=O)ccc(OCC(=O)O)c2CCC)ccc(C(C)=O)c1O [[4-acetyl-3-[2-[2-[2-(4-acetyl-3-hydroxy-2-propylphenoxy)ethoxy]ethoxy]ethoxy]-2-propylphenoxy]acetic acid] | 6.00 | – | 42 min | 85% | 4% | 0.04% | 120 mg/kg | 650 mg/kg | – | –
7 | CCCc1c(OCCCOCCCOc2c(C(C)=O)ccc(OCCCC(=O)O)c2CCC)ccc(C(C)=O)c1O [4-[4-Acetyl-3-[3-[3-(4-acetyl-3-hydroxy-2-propylphenoxy)propoxy]propoxy]-2-propylphenoxy]butanoic acid] | 6.70 | – | 37 min | 93% | 56% | 0.008% | – | – | – | –
8 | CCCc1c(OCCOCCOCCOCCOc2c(C(C)=O)ccc(OCC(=O)O)c2CCC)ccc(C(C)=O)c1O [[4-acetyl-3-[2-[2-[2-[2-(4-acetyl-3-hydroxy-2-propylphenoxy)ethoxy]ethoxy]ethoxy]ethoxy]-2-propylphenoxy]acetic acid] | 6.52 | – | 73 min | 90% | – | 0.04% | – | – | – | –
9 | CCCc1c(OCC(O)COc2ccc3c(=O)cc(C(=O)O)oc3c2CCC)ccc(C(C)=O)c1O (stereo not shown) [7-[3-(4-Acetyl-3-hydroxy-2-propylphenoxy)-2-hydroxypropoxy]-4-oxo-8-propyl-4H-1-benzopyran-2-carboxylic acid, reference compound] | – | – | – | 98% | – | – | – | – | – | orally inactive
10 | CCCc1c(OCCCOc2c(C(C)=O)ccc(OCCCC(=O)O)c2CCC)ccc(C(C)=O)c1O [4-[4-acetyl-3-[3-(4-acetyl-3-hydroxy-2-propylphenoxy)propoxy]-2-propylphenoxy]butanoic acid] | 6.70 | – | – | 97% | 81% | – | 650 mg/kg | 770 mg/kg | 0.44% | –

— patent US4782176A, “Phenoxycarboxylic acids” (Hoffmann-La Roche Inc., priority 1983, dated 1988)
